Measurements taken from paper PMC7531004, “Discovery of gramicidin A analogues with altered activities by multidimensional screening of a one-bead-one-compound library” (Nature Communications, 2020).
Where a SMILES comes first, the peptide text is derived from it. [ ]: non-standard residue; d: D form. The star is where a group is joined. NHCH2CH2OH = OCCN*; For = O=C*

Columns and labels:
[1] = cell viability/%
Summary of the method: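 P388 cells at 1 × 10^4 cells/mL (final) were exposed to library peptides (stocks diluted 250-fold in RPMI1640/10% FBS) for 92 h at 37 °C, 5% CO2. Viable cells were counted by WST-1/1-methoxy PMS (4 h), absorbance 415 nm, and expressed as cell viability (%).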

[2] = H+/Na+ transport assay of bead-derived peptides (one-point); assay type: biochemical; set-up: key: relative activity; mean of two control wells = 1.00; conditions: bead-derived peptide solution, EYPC/EYPG LUVs;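 note: relative to parent gramicidin A activity set to 1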
Summary of the method: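 H+/Na+ transport is monitored through pyranine fluorescence in freshly extruded LUVs after a 30-min room-temperature vortex with each library peptide at a single concentration. Signals are normalized to detergent (Triton X-100) and untreated controls.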

[3] = tested on: Streptococcus pyogenes SSI-9; assay: Antibacterial activity assay of bead-derived peptides (three concentrations); assay type: cell-based; set-up: key: +++: inhibition by the 640-fold diluted peptide solution; ++: inhibition by the 160-fold diluted solution; +: inhibition by the 40-fold diluted solution; -: no inhibition; conditions: S. pyogenes, bead-derived peptide solution, three concentrations
Summary of the method: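 Undiluted, 4-fold and 16-fold DMSO-diluted peptide stocks; S. pyogenes SSI-9, 2 × 10^5 CFU, cation-adjusted MHB (50 mg/L Ca2+, 25 mg/L Mg2+) + 5% laked horse blood; 37 °C, 18 h; readout = cell pellet visible or not.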

Structure (SMILES) | viability [1] [%] | H+/Na+ transport activity normalized against the value of 1 (1.00) [2] | antibacterial activity [3]
CNC(=O)C[C@@H](NC(=O)[C@H](C)NC(=O)CNC(=O)[C@@H](NC=O)C(C)C)C(=O)N[C@@H](C)C(=O)N[C@@H](C(=O)N[C@H](C(=O)N[C@@H](C(=O)N[C@@H](Cc1c[nH]c2ccccc12)C(=O)N[C@H](CC(C)C)C(=O)N[C@@H](Cc1c[nH]c2ccccc12)C(=O)N[C@H](CC(C)C)C(=O)N[C@@H](Cc1c[nH]c2ccccc12)C(=O)N[C@H](CC(C)C)C(=O)N[C@@H](Cc1c[nH]c2ccccc12)C(=O)NCCO)C(C)C)C(C)C)C(C)C [compound 10673] (For-VGA[dD](NHMe)A[dV]V[dV]W[dL]W[dL]W[dL]W-NHCH2CH2OH) | 97.7 | 1.01 | -
CC(C)C[C@@H](NC(=O)[C@H](C)NC(=O)CNC(=O)[C@@H](NC=O)C(C)C)C(=O)N[C@@H](C)C(=O)N[C@@H](C(=O)N[C@H](C(=O)N[C@@H](C(=O)N[C@@H](Cc1c[nH]c2ccccc12)C(=O)N[C@@H](C(=O)N[C@@H](Cc1c[nH]c2ccccc12)C(=O)N[C@H](CC(C)C)C(=O)N[C@@H](Cc1c[nH]c2ccccc12)C(=O)N[C@H](CC(C)C)C(=O)N[C@@H](Cc1c[nH]c2ccccc12)C(=O)NCCO)[C@H](C)O)C(C)C)C(C)C)C(C)C [compound 10674] (For-VGA[dL]A[dV]V[dV]W[dT]W[dL]W[dL]W-NHCH2CH2OH) | 87.3 | 1.08 | +
CC(C)C[C@@H](NC(=O)[C@H](Cc1c[nH]c2ccccc12)NC(=O)[C@H](NC(=O)[C@H](Cc1c[nH]c2ccccc12)NC(=O)[C@@H](CC(C)C)NC(=O)[C@H](Cc1c[nH]c2ccccc12)NC(=O)[C@@H](CC(C)C)NC(=O)[C@@H](NC(=O)[C@H](NC(=O)[C@H](C)NC(=O)[C@H](NC(=O)[C@H](C)NC(=O)CNC(=O)[C@@H](NC=O)C(C)C)C(C)C)[C@H](C)O)C(C)C)C(C)C)C(=O)N[C@@H](Cc1c[nH]c2ccccc12)C(=O)NCCO [compound 10686] (For-VGA[dV]A[dT]V[dL]W[dL]W[dV]W[dL]W-NHCH2CH2OH) | 100 | 1.05 | -
CC(C)C[C@@H](NC(=O)[C@H](C)NC(=O)[C@H](NC(=O)[C@H](C)NC(=O)CNC(=O)[C@@H](NC=O)C(C)C)C(C)C)C(=O)N[C@H](C(=O)N[C@H](CC(C)C)C(=O)N[C@@H](Cc1c[nH]c2ccccc12)C(=O)N[C@@H](C(=O)N[C@@H](Cc1c[nH]c2ccccc12)C(=O)N[C@@H](C(=O)N[C@@H](Cc1c[nH]c2ccccc12)C(=O)N[C@H](CC(C)C)C(=O)N[C@@H](Cc1c[nH]c2ccccc12)C(=O)NCCO)C(C)C)C(C)C)C(C)C [compound 11126] (For-VGA[dV]A[dL]V[dL]W[dV]W[dV]W[dL]W-NHCH2CH2OH) | 8.7 | 1.07 | -
CNC(=O)C[C@@H](NC(=O)[C@H](C)NC(=O)CNC(=O)[C@@H](NC=O)C(C)C)C(=O)N[C@@H](C)C(=O)N[C@@H](C(=O)N[C@H](C(=O)N[C@@H](C(=O)N[C@@H](Cc1c[nH]c2ccccc12)C(=O)N[C@H](CC(C)C)C(=O)N[C@@H](Cc1c[nH]c2ccccc12)C(=O)N[C@H](CC(C)C)C(=O)N[C@@H](Cc1c[nH]c2ccccc12)C(=O)N[C@@H](C(=O)N[C@@H](Cc1c[nH]c2ccccc12)C(=O)NCCO)C(C)C)C(C)C)C(C)C)C(C)C [compound 11200] (For-VGA[dD](NHMe)A[dV]V[dV]W[dL]W[dL]W[dV]W-NHCH2CH2OH) | 66 | 1.06 | -
CC(C)C[C@@H](NC(=O)[C@H](C)NC(=O)[C@H](NC(=O)[C@H](C)NC(=O)CNC(=O)[C@@H](NC=O)C(C)C)C(C)C)C(=O)N[C@H](C(=O)N[C@@H](C(=O)N[C@@H](Cc1c[nH]c2ccccc12)C(=O)N[C@@H](C(=O)N[C@@H](Cc1c[nH]c2ccccc12)C(=O)N[C@H](CC(C)C)C(=O)N[C@@H](Cc1c[nH]c2ccccc12)C(=O)N[C@@H](C(=O)N[C@@H](Cc1c[nH]c2ccccc12)C(=O)NCCO)C(C)C)C(C)C)C(C)C)C(C)C [compound 11268] (For-VGA[dV]A[dL]V[dV]W[dV]W[dL]W[dV]W-NHCH2CH2OH) | 100 | 1.06 | +
CNC(=O)C[C@@H](NC(=O)[C@H](C)NC(=O)[C@@H](CC(C)C)NC(=O)[C@H](C)NC(=O)CNC(=O)[C@@H](NC=O)C(C)C)C(=O)N[C@H](C(=O)N[C@@H](C(=O)N[C@@H](Cc1c[nH]c2ccccc12)C(=O)N[C@H](CC(C)C)C(=O)N[C@@H](Cc1c[nH]c2ccccc12)C(=O)N[C@@H](C(=O)N[C@@H](Cc1c[nH]c2ccccc12)C(=O)N[C@@H](C(=O)N[C@@H](Cc1c[nH]c2ccccc12)C(=O)NCCO)C(C)C)C(C)C)C(C)C)C(C)C [compound 11290] (For-VGA[dL]A[dD](NHMe)V[dV]W[dL]W[dV]W[dV]W-NHCH2CH2OH) | 87.6 | 1.47 | -
CC(C)C[C@@H](NC(=O)[C@H](C)NC(=O)CNC(=O)[C@@H](NC=O)C(C)C)C(=O)N[C@@H](C)C(=O)N[C@H](CC(C)C)C(=O)N[C@H](C(=O)N[C@@H](C(=O)N[C@@H](Cc1c[nH]c2ccccc12)C(=O)N[C@H](CC(C)C)C(=O)N[C@@H](Cc1c[nH]c2ccccc12)C(=O)N[C@@H](C(=O)N[C@@H](Cc1c[nH]c2ccccc12)C(=O)N[C@H](CC(C)C)C(=O)N[C@@H](Cc1c[nH]c2ccccc12)C(=O)NCCO)C(C)C)C(C)C)C(C)C [compound 11305] (For-VGA[dL]A[dL]V[dV]W[dL]W[dV]W[dL]W-NHCH2CH2OH) | 15.5 | 1.26 | +
CC(C)C[C@@H](NC(=O)[C@H](C)NC(=O)[C@H](NC(=O)[C@H](C)NC(=O)CNC(=O)[C@@H](NC=O)C(C)C)C(C)C)C(=O)N[C@H](C(=O)N[C@H](CC(C)C)C(=O)N[C@@H](Cc1c[nH]c2ccccc12)C(=O)N[C@@H](C(=O)N[C@@H](Cc1c[nH]c2ccccc12)C(=O)N[C@H](CC(C)C)C(=O)N[C@@H](Cc1c[nH]c2ccccc12)C(=O)N[C@H](CC(C)C)C(=O)N[C@@H](Cc1c[nH]c2ccccc12)C(=O)NCCO)[C@H](C)O)C(C)C [compound 11400] (For-VGA[dV]A[dL]V[dL]W[dT]W[dL]W[dL]W-NHCH2CH2OH) | 53 | 1.03 | +
CNC(=O)C[C@@H](NC(=O)[C@@H](NC(=O)[C@H](NC(=O)[C@H](C)NC(=O)[C@H](NC(=O)[C@H](C)NC(=O)CNC(=O)[C@@H](NC=O)C(C)C)C(C)C)C(C)C)C(C)C)C(=O)N[C@@H](Cc1c[nH]c2ccccc12)C(=O)N[C@@H](C(=O)N[C@@H](Cc1c[nH]c2ccccc12)C(=O)N[C@@H](C(=O)N[C@@H](Cc1c[nH]c2ccccc12)C(=O)N[C@H](CC(C)C)C(=O)N[C@@H](Cc1c[nH]c2ccccc12)C(=O)NCCO)C(C)C)C(C)C [compound 11413] (For-VGA[dV]A[dV]V[dD](NHMe)W[dV]W[dV]W[dL]W-NHCH2CH2OH) | 45.4 | 1.21 | -
CC(C)C[C@@H](NC(=O)[C@H](C)NC(=O)CNC(=O)[C@@H](NC=O)C(C)C)C(=O)N[C@@H](C)C(=O)N[C@@H](C(=O)N[C@H](C(=O)N[C@H](CC(C)C)C(=O)N[C@@H](Cc1c[nH]c2ccccc12)C(=O)N[C@@H](C(=O)N[C@@H](Cc1c[nH]c2ccccc12)C(=O)N[C@@H](C(=O)N[C@@H](Cc1c[nH]c2ccccc12)C(=O)N[C@@H](C(=O)N[C@@H](Cc1c[nH]c2ccccc12)C(=O)NCCO)[C@H](C)O)C(C)C)C(C)C)C(C)C)C(C)C [compound 11625] (For-VGA[dL]A[dV]V[dL]W[dV]W[dV]W[dT]W-NHCH2CH2OH) | 100 | 1.08 | -
CC(C)C[C@@H](NC(=O)[C@H](Cc1c[nH]c2ccccc12)NC(=O)[C@@H](CC(C)C)NC(=O)[C@H](Cc1c[nH]c2ccccc12)NC(=O)[C@H](NC(=O)[C@H](Cc1c[nH]c2ccccc12)NC(=O)[C@H](NC(=O)[C@@H](NC(=O)[C@H](NC(=O)[C@H](C)NC(=O)[C@H](NC(=O)[C@H](C)NC(=O)CNC(=O)[C@@H](NC=O)C(C)C)C(C)C)C(C)C)C(C)C)[C@H](C)O)[C@H](C)O)C(=O)N[C@@H](Cc1c[nH]c2ccccc12)C(=O)NCCO [compound 12293] (For-VGA[dV]A[dV]V[dT]W[dT]W[dL]W[dL]W-NHCH2CH2OH) | 100 | 1.00 | -
CC(C)C[C@@H](NC(=O)[C@H](Cc1c[nH]c2ccccc12)NC(=O)[C@H](NC(=O)[C@H](Cc1c[nH]c2ccccc12)NC(=O)[C@@H](CC(C)C)NC(=O)[C@H](Cc1c[nH]c2ccccc12)NC(=O)[C@@H](CC(C)C)NC(=O)[C@@H](NC(=O)[C@H](NC(=O)[C@H](C)NC(=O)[C@H](NC(=O)[C@H](C)NC(=O)CNC(=O)[C@@H](NC=O)C(C)C)C(C)C)C(C)C)C(C)C)C(C)C)C(=O)N[C@@H](Cc1c[nH]c2ccccc12)C(=O)NCCO [compound 12432] (For-VGA[dV]A[dV]V[dL]W[dL]W[dV]W[dL]W-NHCH2CH2OH) | 6.4 | 1.01 | -
